Source: patent US9670227B2, “Thienopyrimidine derivatives, a process for their preparation and pharmaceutical compositions containing them” (LES LABORATOIRES SERVIER, priority 2013, dated 2017)
Where two headings read alike, the source gives them in different places.

Assays:
[1] = tested on: AMO-1 multiple myeloma cells; assay: Quantification of the cleaved form of PARP in vivo (MSD ELISA, tumour lysates); set-up: species or system mice (SCID strain); settings: activation factor: cleaved PARP in treated mice / control mice, AMO-1 xenograft in SCID mice, intraveinous or oral routes
Description: The ability of the compounds of the invention to induce apoptosis, by measuring cleaved PARP levels, is evaluated in a xenograft model of AMO-1 multiple myeloma cells. 1.10^7 AMO-1 cells are grafted sub-cutaneously into immunosuppressed mice (SCID strain). 12 to 14 days after the graft, the animals are treated by intraveinous or oral routes with the various compounds. After treatment, the tumour masses are recovered and lysed, and the cleaved form of PARP is quantified in the tumour lysates.
The quantification is carried out using the “Meso Scale Discovery (MSD) ELISA platform” test, which specifically assays the cleaved form of PARP. It is expressed in the form of an activation factor corresponding to the ratio between the quantity of cleaved PARP in the treated mice divided by the quantity of cleaved PARP in the control mice.

[2] = molecular target: Mcl-1 protein (UniProtKB primary accession number: Q07820) (Homo sapiens, UniProt Q07820); assay: Inhibition of Mcl-1 by fluorescence polarisation, Method 1; format: binding; settings: read-out: IC50 (M) Mcl-1 FP
Chain of Mcl-1 protein (Q07820 whole entry): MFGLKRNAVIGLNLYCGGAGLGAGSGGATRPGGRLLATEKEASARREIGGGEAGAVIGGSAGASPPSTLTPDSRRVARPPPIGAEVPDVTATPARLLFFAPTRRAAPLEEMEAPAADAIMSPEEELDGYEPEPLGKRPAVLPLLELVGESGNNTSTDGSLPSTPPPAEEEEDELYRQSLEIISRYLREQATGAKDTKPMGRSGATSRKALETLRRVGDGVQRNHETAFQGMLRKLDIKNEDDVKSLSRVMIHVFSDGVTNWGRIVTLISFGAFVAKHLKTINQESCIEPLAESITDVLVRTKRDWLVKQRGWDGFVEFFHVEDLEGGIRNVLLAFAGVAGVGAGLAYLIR
Method in brief: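 Compounds were tested as 11-point serial dilutions at 5% final DMSO against 5 nM Mcl-1 with 1 nM fluorescein-labelled ligand in 10 mM HEPES, 150 mM NaCl, 0.05% Tween 20, pH 7.4. Relative binding potency was read by fluorescence polarisation.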

[3] = tested on: H929 multiple myeloma tumour line; assay: In vitro cytotoxicity, Microculture Tetrazolium Assay; format: cell-based; settings: Homo sapiens, NCI-H929, 48 h, H929 cells, 48 hours exposure, read-out: IC50 (μM) MTT H929
Description: The cytotoxicity studies were carried out on the H929 multiple myeloma tumour line.
The cells are distributed onto microplates and exposed to the test compounds for 48 hours.

[4] = fluorescence polarisation test, Method 2 values are underlined in the patent (underlining not visible here)
[5] = fluorescence polarisation, Method 1, or Method 2

Structure (SMILES) | PARP fold [1] [fold] | IC50 [2, 4] [M] | IC50 ([3]; MTT) [µM] | IC50 [2, 5] [M] | IC50 ([2]; fluorescence polarisation test, Method 1, or Method 2 where the value is underlined (underlining not visible)) [M] | IC50 ([3]; cell viability) [µM]
Cc1c(-c2c(-c3ccc(F)o3)sc3ncnc(OC(Cc4ccccc4OCc4ccnc(N5CCOCC5)n4)C(=O)O)c23)ccc(OCCN(C)C)c1Cl [Example 202, (2R)-2-{[(5Sa)-5-{3-chloro-4-[2-(dimethylamino)ethoxy]-2-methylphenyl}-6-(5-fluorofuran-2-yl)thieno[2,3-d]pyrimidin-4-yl]oxy}-3-(2-{[2-(morpholin-4-yl)pyrimidin-4-yl]methoxy}phenyl)propanoic acid] | 153.8 | 3.5e-09 | 0.009 | – | – | –
Cc1c(-c2c(-c3ccc(F)cc3)sc3ncnc(OC(Cc4ccccc4OCc4ccnc(-n5cccn5)n4)C(=O)O)c23)ccc(OCCN2CCN(C)CC2)c1Cl [Example 49, (2R)-2-{[(5Sa)-5-{3-chloro-2-methyl-4-[2-(4-methylpiperazin-1-yl)ethoxy]phenyl}-6-(4-fluorophenyl)thieno[2,3-d]pyrimidin-4-yl]oxy}-3-(2-{[2-(1H-pyrazol-1-yl)pyrimidin-4-yl]methoxy}phenyl)propanoic acid] | 180.5 | 2.5e-09 | 0.012 | – | – | –
Cc1c(-c2c(-c3ccc(F)cc3)sc3ncnc(OC(Cc4ccccc4OCc4ccnc(OCCC(F)(F)F)n4)C(=O)O)c23)ccc(OCCN2CCN(C)CC2)c1Cl [Example 62, (2R)-2-{[(5Sa)-5-{3-chloro-2-methyl-4-[2-(4-methylpiperazin-1-yl)ethoxy]phenyl}-6-(4-fluorophenyl)thieno[2,3-d]pyrimidin-4-yl]oxy}-3-(2-{[2-(3,3,3-trifluoropropoxy)pyrimidin-4-yl]methoxy}phenyl)propanoic acid] | 391.6 | 3.9e-09 | 0.008 | – | – | –
CCOc1nccc(COc2ccccc2CC(Oc2ncnc3sc(-c4ccc(F)cc4)c(-c4ccc(OCCN5CCN(C)CC5)c(Cl)c4C)c23)C(=O)O)n1 [Example 57, (2R)-2-{[(5Sa)-5-{3-chloro-2-methyl-4-[2-(4-methylpiperazin-1-yl)ethoxy]phenyl}-6-(4-fluorophenyl)thieno[2,3-d]pyrimidin-4-yl]oxy}-3-{2-[(2-ethoxypyrimidin-4-yl)methoxy]phenyl}propanoic acid] | 198.3 | 5e-09 | 0.008 | – | – | –
COc1ccccc1-c1nccc(COc2ccccc2CC(Oc2ncnc3sc(-c4ccc(F)cc4)c(-c4ccc(OCCN5CCN(C)CC5)c(Cl)c4Br)c23)C(=O)O)n1 [Example 742, (2R)-2-{[(5Sa)-5-{2-bromo-3-chloro-4-[2-(4-methylpiperazin-1-yl)ethoxy]phenyl}-6-(4-fluorophenyl)thieno[2,3-d]pyrimidin-4-yl]oxy}-3-(2-{[2-(2-methoxyphenyl)pyrimidin-4-yl]methoxy}phenyl)propanoic acid] | 267.2 | – | 0.002 | 9.48e-10 | – | –
COCc1nccc(COc2ccccc2CC(Oc2ncnc3sc(-c4ccc(F)cc4)c(-c4ccc(OCCN5CCN(C)CC5)c(Cl)c4C)c23)C(=O)O)n1 [Example 45, (2R)-2-{[(5Sa)-5-{3-chloro-2-methyl-4-[2-(4-methylpiperazin-1-yl)ethoxy]phenyl}-6-(4-fluorophenyl)thieno[2,3-d]pyrimidin-4-yl]oxy}-3-(2-{[2-(methoxymethyl)pyrimidin-4-yl]methoxy}phenyl)propanoic acid] | 194.3 | 6.7e-09 | 0.009 | – | – | –
COc1ccccc1-c1nccc(COc2ccccc2CC(Oc2ncnc3sc(-c4ccc(F)cc4)c(-c4ccc(OCCN5CCN(C)CC5)c(Cl)c4Cl)c23)C(=O)O)n1 [Example 743, (2R)-2-{[(5Sa)-5-{2,3-dichloro-4-[2-(4-methylpiperazin-1-yl)ethoxy]phenyl}-6-(4-fluorophenyl)thieno[2,3-d]pyrimidin-4-yl]oxy}-3-(2-{[2-(2-methoxyphenyl)pyrimidin-4-yl]methoxy}phenyl)propanoic acid] | 147.3 | – | 0.005 | 9.48e-10 | – | –
Cc1c(-c2c(-c3ccc(F)cc3)sc3ncnc(OC(Cc4ccccc4OCc4ccnc(-c5ccccc5OC(C)C)n4)C(=O)O)c23)ccc(OCCN2CCN(C)CC2)c1Cl [Example 723, (2R)-2-{[(5Sa)-5-{3-chloro-2-methyl-4-[2-(4-methylpiperazin-1-yl)ethoxy]phenyl}-6-(4-fluorophenyl)thieno[2,3-d]pyrimidin-4-yl]oxy}-3-[2-({2-[2-(propan-2-yloxy)phenyl]pyrimidin-4-yl}methoxy)phenyl]propanoic acid] | 191.2 | – | 0.004 | 1.18e-09 | – | –
COCCOC(=O)C(Cc1ccccc1OCc1ccnc(-c2ccccc2OC)n1)Oc1ncnc2sc(-c3ccc(F)cc3)c(-c3ccc(OCCN4CCN(C)CC4)c(Cl)c3C)c12 [Example 789, 2-methoxyethyl (2R)-2-{[(5Sa)-5-{3-chloro-2-methyl-4-[2-(4-methylpiperazin-1-yl)ethoxy]phenyl}-6-(4-fluorophenyl)thieno[2,3-d]pyrimidin-4-yl]oxy}-3-(2-{[2-(2-methoxyphenyl)pyrimidin-4-yl]methoxy}phenyl)propanoate] | 135.2 | – | 0.206 | 3.82e-07 | – | –
CC#Cc1sc2ncnc(OC(Cc3ccccc3OCc3ccnc(N4CCOCC4)n3)C(=O)O)c2c1-c1ccc(OCCN2CCN(C)CC2)c(Cl)c1C [Example 485, (2R)-2-{[(5Sa)-5-{3-chloro-2-methyl-4-[2-(4-methylpiperazin-1-yl)ethoxy]phenyl}-6-(prop-1-yn-1-yl)thieno[2,3-d]pyrimidin-4-yl]oxy}-3-(2-{[2-(morpholin-4-yl)pyrimidin-4-yl]methoxy}phenyl)propanoic acid] | 110.8 | – | 0.012 | 4.3e-09 | – | –
COCCOc1ccccc1CC(Oc1ncnc2sc(-c3ccco3)c(-c3ccc(OCCN4CCN(C)CC4)c(Cl)c3C)c12)C(=O)O [Example 290, (2R)-2-{[(5Sa)-5-{3-chloro-2-methyl-4-[2-(4-methylpiperazin-1-yl)ethoxy]phenyl}-6-(furan-2-yl)thieno[2,3-d]pyrimidin-4-yl]oxy}-3-[2-(2-methoxyethoxy)phenyl]propanoic acid] | 121 | 5.8e-09 | 0.097 | – | – | –
Cc1c(-c2c(-c3ccc(F)o3)sc3ncnc(OC(Cc4ccccc4OCc4ccnc(-c5cccs5)n4)C(=O)O)c23)ccc(OCCN2CCN(C)CC2)c1Cl [Example 171, (2R)-2-{[(5Sa)-5-{3-chloro-2-methyl-4-[2-(4-methylpiperazin-1-yl)ethoxy]phenyl}-6-(5-fluorofuran-2-yl)thieno[2,3-d]pyrimidin-4-yl]oxy}-3-(2-{[2-(thiophen-2-yl)pyrimidin-4-yl]methoxy}phenyl)propanoic acid] | 207.4 | 4.1e-09 | 0.003 | – | – | –
Cc1c(-c2c(-c3ccc(F)o3)sc3ncnc(OC(Cc4ccccc4OCc4ccnc(C5CC5)n4)C(=O)O)c23)ccc(OCCN2CCN(C)CC2)c1Cl [Example 170, (2R)-2-{[(5Sa)-5-{3-chloro-2-methyl-4-[2-(4-methylpiperazin-1-yl)ethoxy]phenyl}-6-(5-fluorofuran-2-yl)thieno[2,3-d]pyrimidin-4-yl]oxy}-3-{2-[(2-cyclopropylpyrimidin-4-yl)methoxy]phenyl}propanoic acid] | 144 | 5.3e-09 | 0.006 | – | – | –
Cc1ccncc1-c1nccc(COc2ccccc2CC(Oc2ncnc3sc(-c4ccc(F)cc4)c(-c4ccc(OCCN(C)C)c(Cl)c4C)c23)C(=O)O)n1 [Example 138, (2R)-2-{[(5Sa)-5-{3-chloro-4-[2-(dimethylamino)ethoxy]-2-methylphenyl}-6-(4-fluorophenyl)thieno[2,3-d]pyrimidin-4-yl]oxy}-3-(2-{[2-(4-methylpyridin-3-yl)pyrimidin-4-yl]methoxy}phenyl)propanoic acid] | 333.9 | 8.9e-09 | 0.013 | – | – | –
COc1ccccc1-c1nccc(COc2ccccc2CC(Oc2ncnc3sc(-c4ccc(F)cc4)c(-c4ccc(OCCN5CCN(C)CC5)c(Cl)c4C)c23)C(=O)OCC(F)(F)F)n1 [Example 808, 2,2,2-trifluoroethyl (2R)-2-{[(5Sa)-5-{3-chloro-2-methyl-4-[2-(4-methylpiperazin-1-yl)ethoxy]phenyl}-6-(4-fluorophenyl)thieno[2,3-d]pyrimidin-4-yl]oxy}-3-(2-{[2-(2-methoxyphenyl)pyrimidin-4-yl]methoxy}phenyl)propanoate] | 155 | – | – | – | 1.72e-07 | 0.01
